Results on two molecules are retold here after PMC4474874, “Effect of JAK Inhibitors on Release of CXCL9, CXCL10 and CXCL11 from Human Airway Epithelial Cells” (PLoS ONE, 2015).

Structures are written as SMILES. Where two headings read alike, the source gives them in different places. Bounds are passed on as bounds.

Test [1] has as its system JAK2. Also on record: method as in Coe et al., 25. As to conditions: ref Coe et al., 25, cited from earlier work.
The test system of test [2] is JAK1. Also on record: method as in Coe et al., 25. As to conditions: ref Coe et al., 25, cited from earlier work.
Test [3] relates to TrkA. Also on record: method as in Coe et al., 25. As to conditions: ATP at the Km; ref Coe et al., 25; cited from earlier work.
Test [4] has as its system JAK3. Also on record: method as in Coe et al., 25. The settings on record: ref Coe et al., 25, cited from earlier work.
In test [5] the test system is STAT-1. The test can be described thus: STAT-1 DNA binding in BEAS-2B cells (TransAM). Format: cell-based, human. The settings on record: IFNγ and IFNγ + TNFα stimulation. How it is done:
STAT phosphorylation, nuclear translocation and DNA binding was determined using TransAM assays (Actif Motif, Rixensart, Belgium). Cells were treated with JAK inhibitors for 30 min prior to stimulation for 1h. Nuclear extracts were prepared using the Actif Motif assay reagents. Briefly, the nuclear extracts (10 μg) were incubated in DNA coated plates for 1h. After washing, antibodies supplied with the TransAM kit that were specific for the active forms of STAT1, STAT3, STAT5A and STAT5B were added to the wells and incubated for a further hour. The plates were washed and a secondary HRP-labelled anti-goat Ig antibody was added and the plates incubated for an hour. After washing, the assay was developed using the TMB substrate provided and the reaction stopped using 2N sulphuric acid. The plates were read at 450nm with a reference filter of 610nm. Data were then normalised to non-stimulated cells and calculated as fold change from baseline.
After 1 h, nuclear extracts of the cells were prepared and TransAM assays for STAT-1 (panel a) and STAT-3 (panel b) were performed. Data are presented as fold change from baseline ± SEM; n = 4.

Test [6] deals with TYK2. Also on record: method as in Coe et al., 25. The settings on record: ref Coe et al., 25, cited from earlier work.
For test [7], the system named is human T lymphocytes (JAK1/3). Also on record: method as in Coe et al., 25. As to conditions: ref Coe et al., 25; read-out: IC50 IL-2-induced P-STAT5 human T lymphocytes (JAK1/3); cited from earlier work.
For test [8], the target named is Protein kinase C β2. As to conditions: read-out: IC50 Protein kinase C β2 Km; ATP at the Km; ref Coe et al., 25; cited from earlier work.
Test [9] deals with MST4. Also on record: method as in Coe et al., 25. The settings on record: ATP at the Km; ref Coe et al., 25; cited from earlier work.
Test [10] concerns ROCK1. Also on record: method as in PMID 18094329. As to conditions: inactive or IC50 >30μM; read-out: IC50 against ROCK1; cited from earlier work.
Test [11] has as its system JAK2. Also on record: method as in PMID 18094329. As to conditions: cellular assay; cited from earlier work.
Test [12] has as its system TrkA. Also on record: method as in PMID 18094329. As to conditions: inactive or IC50 >30μM; read-out: IC50 against TrkA; cited from earlier work.
In test [13] the test system is cdk2. Also on record: method as in PMID 18094329. The settings on record: inactive or IC50 >30μM; read-out: IC50 against cdk2; cited from earlier work.
Test [14] concerns AuroraA. Also on record: method as in PMID 18094329. As to conditions: inactive or IC50 >30μM; read-out: IC50 against AuroraA; cited from earlier work.
In test [15] the test system is JAK/JAK3. Also on record: method as in PMID 18094329. The settings on record: cellular assay; cited from earlier work.
Test [16] has as its system PAK4. Also on record: method as in PMID 18094329. The settings on record: inactive or IC50 >30μM; read-out: IC50 against PAK4; cited from earlier work.
In test [17] the test system is MET. Also on record: method as in PMID 18094329. The settings on record: inactive or IC50 >30μM; read-out: IC50 against MET; cited from earlier work.
The test system of test [18] is ~30 other kinase pathways. Also on record: method as in PMID 18094329. As to conditions: including AKT, GSK3β, IKKβ, IKKi, MAPK1, MAPKAP-K2, MASK, MET, and ROCK1; cited from earlier work.
The test system of test [19] is Lck. Also on record: method as in PMID 18094329. The settings on record: at concentrations >5μM; cited from earlier work.
Test [20] has as its system PKA. Also on record: method as in PMID 18094329. As to conditions: at concentrations >5μM; cited from earlier work.
Test [21] has as its system cdk6. Also on record: method as in PMID 18094329. The settings on record: inactive or IC50 >30μM; read-out: IC50 against cdk6; cited from earlier work.
Test [22] deals with MAPKAP-K2. Also on record: method as in PMID 18094329. As to conditions: inactive or IC50 >30μM; read-out: IC50 against MAPKAP-K2; cited from earlier work.
The test system of test [23] is PDK1. Also on record: method as in PMID 18094329. The settings on record: inactive or IC50 >30μM; read-out: IC50 against PDK1; cited from earlier work.
The subject of test [24] is MAPK1. Also on record: method as in PMID 18094329. The settings on record: inactive or IC50 >30μM; read-out: IC50 against MAPK1; cited from earlier work.
Test [25] relates to FGFR1. Also on record: method as in PMID 18094329. The settings on record: inactive or IC50 >30μM; read-out: IC50 against FGFR1; cited from earlier work.

For `CCc1cc(O)ccc1-c1ccc2c(-c3nc4ccccc4[nH]3)n[nH]c2c1` [PF1367550, 4-(3-(1H-benzo[d]imidazol-2-yl)-1H-indazol-6-yl)-3-ethylphenol], the IC50 in [1] (1mM ATP, read-out: IC50 JAK2 1 mM) is 0.0013 µM; in test [1] (ATP at the Km, read-out: IC50 JAK2 Km), 0.001 µM; in test [2] (1mM ATP, read-out: IC50 JAK1 1 mM), 0.0004 µM; in test [2] (ATP at the Km, read-out: IC50 JAK1 Km), 0.0008 µM; in [3], 0.227 µM; in test [4] (1mM ATP, read-out: IC50 JAK3 1 mM) it was 0.014 µM. Further, the IC50 in test [4] (ATP at the Km, read-out: IC50 JAK3 Km) is 0.001 µM; in test [6] (1mM ATP, read-out: IC50 TYK2 1 mM) it was 0.0084 µM; in [6] (ATP at the Km, read-out: IC50 TYK2 Km), 0.0008 µM; in [7], 0.011 µM; in test [8], 0.665 µM; in test [9], 0.692 µM. The “effect on STAT-1 DNA binding” value in test [5] was “suppressed”.

For `C[C@@H]1CCN(C(=O)N2CCCC2)C[C@@H]1N(C)c1ncnc2[nH]ccc12` [PF956980], the IC50 is above 30 µM in test [10]; 0.188 µM in test [11]; above 30 µM in test [12]; above 30 µM in test [13]; above 30 µM in test [14]; 0.022 µM in [15]. The IC50 in test [16], in test [17], in [21], in [22], in [23] and in test [24] was above 30 µM in each case. In addition, in test [25], the IC50 was above 30 µM. Besides, the “effect on ~30 other kinase pathways” value in [18] is reported as “no effect”. Moreover, the “effect against Lck” value in test [19] was “modest effects”. Moreover, the “effect against PKA” value in test [20] was “modest effects”. Besides, the “effect on STAT-1 DNA binding” value in test [5] was “suppressed”.
